In the assay the test system is HIF-1α. In words: HIF-1α protein expression in human ovarian cancer cell lines, Western blot. Type of assay: cell-based. As for the experimental part:
OV2008 cells were cultured in RPMI 1640 media with 10% fetal bovine serum, penicillin (100 U/ml), streptomycin (100 μg/ml), 1× minimal essential medium nonessential amino acid solution (Invitrogen, Carlsbad, Calif.), and insulin (0.25 U/ml) (Invitrogen). CAOV-3 cells were cultured in complete media consisting of Dulbecco's modified Eagle's medium with high glucose and L-glutamine (2 mM), 10% fetal bovine serum, penicillin (100 U/ml), streptomycin (100 μg/ml), and insulin (0.02 U/ml). To create hypoxic conditions, cells were transferred to a hypoxic chamber (model 3130; Thermo Fisher Scientific, Waltham, Mass.), where they were maintained at 37° C. in an atmosphere containing 5% CO2, 1% O2, and 94% N2. L-4F (the peptide Ac-D-W-F-K-A-F-Y-D-K-V-A-E-K-F-K-E-A-F-NH2 (SEQ ID NO: 12) synthesized from all L amino acids) was dissolved in water at 1 mg/ml (freshly prepared every time) and used between 1 and 10 μg/ml. L-5F was synthesized by Peptisyntha Inc. (Torrance, Calif.), dissolved in ABCT buffer (50 mM ammonium bicarbonate, pH 7.0, containing 0.1 mg/ml Tween 20) at 1 mg/ml, and diluted to the required concentrations before use. Cobalt chloride (CoCl2), insulin, cycloheximide (CHX), and N-(benzyloxycarbonyl)leucinylleucinylleucinal-Z-Leu-Leu-Leu-al (MG-132) were purchased from Sigma-Aldrich (St. Louis, Mo.). LPA (Avanti Polar Lipids, Alabaster, Ala.) in chloroform was dried as recommended by the manufacturer, dissolved in ethanol at a concentration of 20 mM as a stock solution, and diluted to the required concentrations in the corresponding cell culture media before use.
Western blot analyses were performed as described previously (Gao et al., 2011). In brief, cell lysates were collected in a lysis buffer containing 0.1 MNaCl, 5 mM EDTA, 50 μM sodium orthovanadate, 1% Triton X-100, and protease inhibitor tablet (Roche Diagnostics, Indianapolis, Ind.) in 50 mM Tris buffer, pH 7.5, loaded onto 4 to 12% Bis-Tris gel (Invitrogen), transferred to polyvinylidene difluoride membrane, and incubated with the appropriate antibodies. Anti-pThr^202/Tyr^204-Erk, anti-Erk, anti-pThr^389-p70 S6 kinase, anti-p70 S6 kinase, anti-pSer^473-Akt, and anti-Akt antibodies were purchased from Cell Signaling Technology (Danvers, Mass.); mouse anti-human HIF-1α antibody was purchased from BD Pharmingen (San Diego, Calif.); rabbit anti-mouse HIF-1α antibody was purchased from Abcam Inc. (Cambridge, Mass.); and anti-GAPDH antibody was purchased from Santa Cruz Biotechnology Inc. (Santa Cruz, Calif.).
On the technique in general: Immunoblotting shows a protein as a band on a membrane.

With “Ac-DWFKAFYDKVAEKFKEAF-NH2 [L-4F, Ac-D-W-F-K-A-F-Y-D-K-V-A-E-K-F-K-E-A-F-NH2]”, the “CoCl2- and insulin-induced HIF-1α expression” value (CAOV-3 cells) is “dose-dependently inhibited”; the “CoCl2- and insulin-induced HIF-1α expression” value (SKOV3 cells) is reported as “dose-dependently inhibited”. Also, the “HIF-1α expression, post-treatment” value (OV2008 cells stimulated first with CoCl2 or insulin 3 h or 24 h, 10 μg/ml) is reported as “significantly decreased”. In addition, the “hypoxia-induced (low oxygen 1% O2, CoCl2) HIF-1α protein expression” value (OV2008 cells, pretreatment) is “dose-dependently suppressed”.

Source of the values: patent publication US9241976B2, “Use of HDL-related molecules to treat and prevent proinflammatory conditions” (THE REGENTS OF THE UNIVERSITY OF CALIFORNIA, priority 2011, dated 2016).
